Measured values from US11919939B2, “Beta-2-glycoprotein 1 derived peptide and use thereof for treating antiphospholipid syndrome” (Université de Genéve, priority 2017, dated 2024).
Entries after “also recorded” stand apart in the source; their conditions may differ.

Key:
[1] = test system: aPLA (patient-derived anti-β2GP1 antibodies); test: ELISA epitope mapping assay (aPLA binding to coated wells); parameters: species or system human; details: wells coated with 10 μg/ml, aPLA from APS patients
Experimental: IgG fractions were isolated from patients plasma with Protein-G CL-4B Sepharose (GE Healthcare) as previously described.^16 To assay for endotoxin and lipopeptide contamination of the IgG fractions, we depleted IgG from the aPLA and IgG-ctl (control) fractions by one step of affinity adsorption to Protein G-Sepharose and tested the remaining supernatant for its capacity for monocyte activation, as previously described^17. […] Each experiment was performed with at least 2 different preparations of IgG.
MaxiSorp™ 96 well plates (Nunc) were coated with 10 μg/ml recombinant domains or peptides of β2GP1 prior to incubation with aPLA or control IgG. Secondary anti-human antibodies conjugated to IR800CW (Rockland) were used. Protein- or peptide-bound antibodies were detected and quantified by the Odyssey system (Li-Cor).

[2] = test system: human monocytes activated with aPLA; test: TNF production in human monocytes activated with aPLA; assay type: cell-based; details: domains or peptides at 10 μg/ml
Experimental: Monocytes were isolated from blood buffy coats of healthy volunteers as previously described.^14, 15 Monocyte purity routinely consisted of >90% CD14^+ cells, <1% CD3^+ cells, and <1% CD19^+ cells as assessed by flow cytometry. Cells were cultured in RPMI containing 10% Fetal Bovine Serum (FBS; Gibco BRL-Life Technologies). Each experiment was performed with at least three different preparations of monocytes.
The cells were treated with recombinant domains or peptides of β2GP1 at 10 μg/ml prior to incubation with aPLA or control IgG. Supernatants were collected for TNF quantification by ELISA (R&D System).

[3] = test system: CD4+ T cells from APS patients; test: T cell proliferation assay (CFSE dilution) on PBMC of APS patients; assay type: cell-based, human; parameters: dose or concentration left out as unconfirmed; details: antigens for 10 days, flow cytometry
Experimental: Peripheral blood mononuclear cells (PBMC) were isolated by density gradient centrifugation over Lymphoprep™ (Axis-Shield PoC) according to the manufacturer's instructions. T cell proliferation was evaluated by 5,6-carboxylfluorescein diacetate succinimidyl ester (CFSE) dilution assays (eBioscience). PBMC were stained with 0.1 μM CFSE (eBioscience), according to the manufacturer's instructions. Cells were cultured in the presence of antigens ([…]) for 10 days. T cell proliferation was assessed by flow cytometry evaluation of CFSE dilution. Proliferation was expressed as the cell division index (defined as the number of CFSE^low T cells cultured with antigen/number of CFSE^low T cells without antigen). In all cases, the culture medium consisted of X-VIVO 15 (Lonza, Walkersville, MD) supplemented with penicillin (100 U/ml) and streptomycin (0.1 mg/ml).
Single-cell suspensions stained with CFSE (eBioscience) were incubated with anti-CD32 (Biolegend) to prevent nonspecific antibody binding, then stained with antibodies against AF488-CD3, AF647-CD4, (BD Bioscience) major histocompatibility complex (MHC) class II tetramer (Benaroya Research Institute). Staining was assessed with ACCURI C6 flow cytometer (BD Biosciences).

## R58A: alanine scanning mutant of p6 (CKPGYVSAGGMRKFICPLTG; listed as Homo sapiens)
[1]
  aPLA binding to peptide- or domain-coated well: involved in the binding of aPLA

## G59A: alanine scanning mutant of p6 (CKPGYVSRAGMRKFICPLTG; listed as Homo sapiens)
[1]
  aPLA binding to peptide- or domain-coated well: involved in the binding of aPLA

## F9A: alanine scanning mutant of p1 (MISPVLILASSFLCHVAIAG; listed as Homo sapiens)
[1]
  aPLA binding to peptide- or domain-coated well: significantly decreased the binding of aPLA

## C66A: alanine scanning mutant of p6 (CKPGYVSRGGMRKFIAPLTG; listed as Homo sapiens)
[1]
  aPLA binding to peptide- or domain-coated well: involved in the binding of aPLA

## p3: 20-mer overlapping peptide of β2GP1 domain I-II, SEQ ID NO:39 (RTCPKPDDLPFSTVVPLKTF; listed as Homo sapiens)
[1]
  aPLA binding to peptide- or domain-coated well: bound to p3 with a similar efficiency compared to p1

## p10: 20-mer overlapping peptide of β2GP1 domain I-II, SEQ ID NO:44 (ENGAVRYTTFEYPNTISFSC; listed as Homo sapiens)
[2]
  Inhibition of TNF production induced by aPLA: had no effect

## R62A: alanine scanning mutant of p6 (CKPGYVSRGGMAKFICPLTG; listed as Homo sapiens)
[1]
  aPLA binding to peptide- or domain-coated well: involved in the binding of aPLA

## MISPVLILFSSFLCHVAIAG [p1]
[2]
  Inhibition of TNF production induced by aPLA: diminished the production of TNF induced by aPLA
[1]
  aPLA binding to peptide- or domain-coated well: able to bind p1 (SEQ ID NO:32) as potently as p6; also recorded: interact with aPLA
[3]
  CD4+ T cell proliferative response (CD4+CFSElow): significantly increased; also recorded: induced the proliferation of CD4^+ T cells
[3]; listed as peptide 1
  CD4+ T cell proliferative response (CD4+CFSElow): carries antigenic determinant for CD4^+ T cell proliferation

## p6: 20-mer peptide of β2GP1 domain I-II containing epitope R39-R43, SEQ ID NO:33 (CKPGYVSRGGMRKFICPLTG; listed as Homo sapiens)
[2]
  Inhibition of TNF production induced by aPLA: diminished the production of TNF induced by aPLA
[1]
  aPLA binding to peptide- or domain-coated well: interacted similarly with both peptides; also recorded: interact with aPLA

## G60A: alanine scanning mutant of p6 (CKPGYVSRGAMRKFICPLTG; listed as Homo sapiens)
[1]
  aPLA binding to peptide- or domain-coated well: involved in the binding of aPLA

## F64A: alanine scanning mutant of p6 (CKPGYVSRGGMRKAICPLTG; listed as Homo sapiens)
[1]
  aPLA binding to peptide- or domain-coated well: involved in the binding of aPLA

## p11: 20-mer overlapping peptide of β2GP1 domain I-II, SEQ ID NO:45 (EYPNTISFSCNTGFYLNGAD; listed as Homo sapiens)
[2]
  Inhibition of TNF production induced by aPLA: had no effect

## M61A: alanine scanning mutant of p6 (CKPGYVSRGGARKFICPLTG; listed as Homo sapiens)
[1]
  aPLA binding to peptide- or domain-coated well: involved in the binding of aPLA

## S11A: alanine scanning mutant of p1 (MISPVLILFSAFLCHVAIAG; listed as Homo sapiens)
[1]
  aPLA binding to peptide- or domain-coated well: significantly decreased the binding of aPLA

## I7A: alanine scanning mutant of p1 (MISPVLALFSSFLCHVAIAG; listed as Homo sapiens)
[1]
  aPLA binding to peptide- or domain-coated well: significantly decreased the binding of aPLA

## L8A: alanine scanning mutant of p1 (MISPVLIAFSSFLCHVAIAG; listed as Homo sapiens)
[1]
  aPLA binding to peptide- or domain-coated well: significantly decreased the binding of aPLA

## F12A: alanine scanning mutant of p1 (MISPVLILFSSALCHVAIAG; listed as Homo sapiens)
[1]
  aPLA binding to peptide- or domain-coated well: significantly decreased the binding of aPLA

## C14A: alanine scanning mutant of p1 (MISPVLILFSSFLAHVAIAG; listed as Homo sapiens)
[1]
  aPLA binding to peptide- or domain-coated well: significantly decreased the binding of aPLA

B1: reduced β2GP1: reduced β2GP1 exposing the cryptic epitope (protein)
chain: GRTCPKPDDLPFSTVVPLKTFYEPGEEITYSCKPGYVSRGGMRKFICPLTGLWPINTLKCTPRVCPFAGILENGAVRYTTFEYPNTISFSCNTGFYLNGADSAKCTEEGKWSPELPVCAPIICPPPSIPTFATLRVYKPSAGNNSLYRDTAVFECLPQHAMFGNDTITCTTHGNWTKLPECREVKCPFPSRPDNGFVNYPAKPTLYYKDKATFGCHDGYSLDGPEEIECTKLGNWSAMPSCKASCKVPVKKATVVYQGERVKIQEKFKNGMLHGDKVSFFCKNKEKKCSYTEDAQCIDGTIEVPKCFKEHSSLAFWKTDASDVKPC
[2]
  Inhibition of TNF production induced by aPLA: no effect on aPLA activity
[1]
  aPLA binding to peptide- or domain-coated well: binding of aPLA
[3]
  CD4+ T cell proliferative response (CD4+CFSElow): induce proliferation of T cells; also recorded: proliferative responses were detected

B2: β-2-Glycoprotein 1 (protein)
chain: GRTCPKPDDLPFSTVVPLKTFYEPGEEITYSCKPGYVSRGGMRKFICPLTGLWPINTLKCTPRVCPFAGILENGAVRYTTFEYPNTISFSCNTGFYLNGADSAKCTEEGKWSPELPVCAPIICPPPSIPTFATLRVYKPSAGNNSLYRDTAVFECLPQHAMFGNDTITCTTHGNWTKLPECREVKCPFPSRPDNGFVNYPAKPTLYYKDKATFGCHDGYSLDGPEEIECTKLGNWSAMPSCKASCKVPVKKATVVYQGERVKIQEKFKNGMLHGDKVSFFCKNKEKKCSYTEDAQCIDGTIEVPKCFKEHSSLAFWKTDASDVKPC
notes: native β2GP1 purified from Human Plasma (Prospecbio)
[2]
  Inhibition of TNF production induced by aPLA: no effect on aPLA activity
[1]
  aPLA binding to peptide- or domain-coated well: binding of aPLA
[3]
  CD4+ T cell proliferative response (CD4+CFSElow): unable to significantly stimulate T cell proliferation

B3: domain V: recombinant fusion protein of β2GP1 domain V (protein)
chain: SCKVPVKKATVVYQGERVKIQEKFKNGMLHGDKVSFFCKNKEKKCSYTEDAQCIDGTIEVPKCFKEHSSLAFWKTDASDVKPC
modifications: left off: small tags and cut ends
[2]
  Inhibition of TNF production induced by aPLA: significantly decreased the production of TNF induced by aPLA

B4: domain III-IV: recombinant fusion protein of β2GP1 domains III-IV (protein)
chain: PIICPPPSIPTFATLRVYKPSAGNNSLYRDTAVFECLPQHAMFGNDTITCTTHGNWTKLPECREVKCPFPSRPDNGFVNYPAKPTLYYKDKATFGCHDGYSLDGPEEIECTKLGNWSAMPSCKA
modifications: left off: small tags and cut ends
[2]
  Inhibition of TNF production induced by aPLA: significantly decreased the production of TNF induced by aPLA
[1]
  aPLA binding to peptide- or domain-coated well: efficiently interacted with aPLA
[1]; listed as domain III
  aPLA binding to peptide- or domain-coated well: binding of aPLA

B5: domain I-II: recombinant fusion protein of β2GP1 sushi domain I and II, SEQ ID NO:37 (protein, listed as Homo sapiens)
chain: MISPVLILFSSFLCHVAIAGRTCPKPDDLPFSTVVPLKTFYEPGEEITYSCKPGYVSRGGMRKFICPLTGLWPINTLKCTPRVCPFAGILENGAVRYTTFEYPNTISFSCNTGFYLNGADSAKCTEEGKWSPELPVCA
[2]
  Inhibition of TNF production induced by aPLA: significantly decreased the production of TNF induced by aPLA
[1]
  aPLA binding to peptide- or domain-coated well: binding of aPLA
[3]
  CD4+ T cell proliferative response (CD4+CFSElow): induce proliferation of T cells
[3]; listed as β2GP1-domain I-II
  CD4+ T cell proliferative response (CD4+CFSElow): proliferative responses were detected
